Data as given in the supplement of paper PMC11061612.

Legend:
[1] = test system: CML-T1 (Chronic Myelogenous Leukemia); test: Bliss excess, mean over the matrix (fraction); higher = more synergy
Method in brief: (§1)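 After 24 hours at 37°C and 5% CO2 in 1536-well plates, cells in DMEM/F12 or RPMI plus 10% FBS received two-drug dose matrices for 72 hours. Viability came from CellTiter-Glo 2.0 luminescence and was scaled as inhibition, anchored at 0 by vehicle wells and at 1 by blank wells. Combination Emax is taken as the second-highest inhibition in the matrix, and Bliss excess as the observed combination effect less EA + EB − EA·EB, with EA and EB the single-agent effects.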

[2] = test system: RMG-I (Ovarian Carcinoma); test: as above
Method in brief: as §1

[3] = test system: NCI-H810 (Non-Small Cell Lung Carcinoma); test: as above
Method in brief: as §1

[4] = test system: OV-90 (Ovarian Carcinoma); test: as above
Method in brief: as §1

[5] = test system: PANC-02-03 (Pancreatic Carcinoma); test: as above
Method in brief: as §1

[6] = test system: SW684 (Other Solid Carcinomas); test: as above
Method in brief: as §1

[7] = test system: SK-MM-2 (Plasma Cell Myeloma); test: as above
Method in brief: as §1

[8] = test system: Becker (Low Grade Glioma); test: as above
Method in brief: as §1

[9] = test system: NKM-1 (Acute Myeloid Leukemia); test: as above
Method in brief: as §1

KYM-1 (Rhabdomyosarcoma) [10] = test: as above
Method in brief: as §1

[11] = test system: EB-3 (Burkitt's Lymphoma); test: as above
Method in brief: as §1

[12] = test system: COLO-684 (Endometrial Carcinoma); test: as above
Method in brief: as §1

[13] = test system: NCI-H1755 (Lung Adenocarcinoma); test: as above
Method in brief: as §1

CHL-1 (Melanoma) [14] = test: as above
Method in brief: as §1

[15] = test system: LOUCY (T-Lymphoblastic Leukemia); test: as above
Method in brief: as §1

[16] = test system: HCC-44 (Lung Adenocarcinoma); test: as above
Method in brief: as §1

[17] = test system: LAMA-84 (Chronic Myelogenous Leukemia); test: as above
Method in brief: as §1

[18] = test system: KYSE-70 (Esophageal Squamous Cell Carcinoma); test: as above
Method in brief: as §1

[19] = test system: PC-14 (Lung Adenocarcinoma); test: as above
Method in brief: as §1

[20] = test system: FLO-1 (Esophageal Adenocarcinoma); test: as above
Method in brief: as §1

[21] = test system: CML-T1 (Chronic Myelogenous Leukemia); test: combination Emax (second highest fraction inhibited in the dose matrix, 72 h); higher = more inhibition; extreme values may be limits of the assay
Method in brief: as §1

[22] = test system: RMG-I (Ovarian Carcinoma); test: as above
Method in brief: as §1

[23] = test system: NCI-H810 (Non-Small Cell Lung Carcinoma); test: as above
Method in brief: as §1

[24] = test system: OV-90 (Ovarian Carcinoma); test: as above
Method in brief: as §1

[25] = test system: PANC-02-03 (Pancreatic Carcinoma); test: as above
Method in brief: as §1

[26] = test system: SW684 (Other Solid Carcinomas); test: as above
Method in brief: as §1

[27] = test system: SK-MM-2 (Plasma Cell Myeloma); test: as above
Method in brief: as §1

[28] = test system: Becker (Low Grade Glioma); test: as above
Method in brief: as §1

[29] = test system: NKM-1 (Acute Myeloid Leukemia); test: as above
Method in brief: as §1

KYM-1 (Rhabdomyosarcoma) [30] = test: as above
Method in brief: as §1

[31] = test system: EB-3 (Burkitt's Lymphoma); test: as above
Method in brief: as §1

[32] = test system: COLO-684 (Endometrial Carcinoma); test: as above
Method in brief: as §1

[33] = test system: NCI-H1755 (Lung Adenocarcinoma); test: as above
Method in brief: as §1

CHL-1 (Melanoma) [34] = test: as above
Method in brief: as §1

[35] = test system: LOUCY (T-Lymphoblastic Leukemia); test: as above
Method in brief: as §1

[36] = test system: HCC-44 (Lung Adenocarcinoma); test: as above
Method in brief: as §1

[37] = test system: LAMA-84 (Chronic Myelogenous Leukemia); test: as above
Method in brief: as §1

[38] = test system: KYSE-70 (Esophageal Squamous Cell Carcinoma); test: as above
Method in brief: as §1

[39] = test system: PC-14 (Lung Adenocarcinoma); test: as above
Method in brief: as §1

[40] = test system: FLO-1 (Esophageal Adenocarcinoma); test: as above
Method in brief: as §1
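For Bliss excess, mean over the matrix in this document: after 72 h of two-drug dosing.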

SMILES	Bliss excess [1]	Bliss excess [2]	Bliss excess [3]	Bliss excess [4]	Bliss excess [5]	Bliss excess [6]	Bliss excess [7]	Bliss excess [8]	Bliss excess [9]	Bliss excess (KYM-1 (Rhabdomyosarcoma) [10])	Bliss excess [11]	Bliss excess [12]	Bliss excess [13]	Bliss excess (CHL-1 (Melanoma) [14])	Bliss excess [15]	Bliss excess [16]	Bliss excess [17]	Bliss excess [18]	Bliss excess [19]	Bliss excess [20]	combination Emax [21]	combination Emax [22]	combination Emax [23]	combination Emax [24]	combination Emax [25]	combination Emax [26]	combination Emax [27]	combination Emax [28]	combination Emax [29]	combination Emax (KYM-1 (Rhabdomyosarcoma) [30])	combination Emax [31]	combination Emax [32]	combination Emax [33]	combination Emax (CHL-1 (Melanoma) [34])	combination Emax [35]	combination Emax [36]	combination Emax [37]	combination Emax [38]	combination Emax [39]	combination Emax [40]
O=C(c1cc(Cc2n[nH]c(=O)c3ccccc23)ccc1F)N1CCN(C(=O)C2CC2)CC1 [Olaparib] + Cc1c2c(nn1C)CSCc1cc(n(C)n1)CSc1cc(c3ccccc3c1)OCCCc1c(C(=O)O)n(C)c3c-2c(Cl)ccc13 [AZD5991] (first compound max 10 µM, 7x7, partner max 1 µM)	-0.0255	-0.0627	-0.0578	-0.0554	-0.0465	-0.0763	-0.0093	-0.0125	0.0786	0.0435	-0.0579	-0.0104	-0.0215	-0.0174	-0.0086	-0.0267	-0.0136	-0.032	-0.0279	-0.0102	0.832	0.123	0.49	0.114	0.128	0.0699	0.111	0.22	1	0.832	0.0218	0.224	0.18	0.312	0.234	0.117	0.223	0.104	0.0956	0.253
O=C(c1cc(Cc2n[nH]c(=O)c3ccccc23)ccc1F)N1CCN(C(=O)C2CC2)CC1 [Olaparib] + COc1nnc2ccc(N3CCC(c4ccc(OCCN5CCN(C)C(=O)[C@H]5C)cc4)CC3)nn12 [AZD5153] (first compound max 10 µM, 7x7, partner max 1 µM)	-0.0113	-0.0288	-0.0406	-0.0144	-0.0683	-0.0857	-0.032	-0.0004	-0.0231	-0.0479	-0.0549	-0.0132	-0.0453	-0.0554	0.0304	-0.0341	-0.0335	-0.0305	-0.0284	-0.0174	0.852	0.536	0.671	0.402	0.591	0.415	0.875	0.397	0.898	0.862	0.694	0.564	0.498	0.418	0.749	0.593	0.8	0.389	0.431	0.575
CN(CCO)CC[C@H](CSc1ccccc1)Nc1ccc(S(=O)(=O)NC(=O)c2ccc(N3CCC([C@@H](O)c4ccccc4-c4ccc(Cl)cc4)CC3)cc2)cc1S(=O)(=O)C(F)(F)F [AZD4320] + CS(=O)(=O)CCNCc1ccc(-c2ccc3ncnc(Nc4ccc(OCc5cccc(F)c5)c(Cl)c4)c3c2)o1 [Lapatinib] (first compound max 1 µM, 7x7, partner max 10 µM)	-0.0077	0.0763	-0.0665	-0.02	0.0082	-0.0169	0.0729	0.0497	0.0418	0.021	-0.0721	-0.0766	0.0015	0.0412	0.0586	-0.0303	0.0411	-0.0022	0.0043	0.0298	1	0.972	0.518	0.849	0.875	0.823	1	0.912	1	0.395	0.605	0.34	0.702	0.718	1	0.472	0.989	0.177	0.964	0.842
